Like-named read-outs stand apart in the source and are kept apart here.
What was measured:
[1] = In vitro cytotoxicity assay (MTT cell viability) in HepG2 cells; type: cell-based, human; settings: human
Method: To evaluate antiviral selectivity, the cytotoxic activity of each compound was determined using a standard cell viability assay performed on the parental HepG2 cell line. Cell viability was determined by measuring the conversion of 3-(4,5-dimethylthiazol-2-yl)-2,5-diphenyltetrazolium bromide (MTT) to the insoluble formazan salt crystal that occurs in live cells. Briefly, HepG2 cells were seeded in 96-well plates at a density of 20,000 cells per well in […] (complete growth medium) and allowed to adhere overnight in a 37° C., […] humidified incubator. The next day, test agents were prepared by performing 8 half-log10 serial dilutions in 100% DMSO at 200× the final desired concentration in the assay. Compounds were tested over a range of concentrations from 30 μM to 1.0 nM in the assay. HepG2 cells were incubated in the presence of various concentrations of CAMs for 7 days in a 37° C., […] humidified incubator. At the completion of the 7-day incubation period, MTT reagent was added to each well and the mixture was incubated for an additional 3-4 hours. At the completion of the incubation period, all wells were aspirated to remove the culture medium. The formazan crystals were solubilized from the cell monolayers with 100% DMSO. Plates were briefly mixed on an orbital shaker and absorbance was measured at 492 nm using a Perkin-Elmer EnVision multi-label plate reader. All absorbance values were converted to a percentage of the signal obtained from the vehicle treated controls. Absorbance values at 492 nm are directly proportional to the number of viable cells present in the sample. A CC50 value (cytotoxic concentration that results in loss of 50% cell viability) was calculated from the dose-response curve by 4-parameter, non-linear regression analysis using the GraphPad Prism software. The positive control compound, staurosporine, reduced the viability of HepG2 cells in a dose-dependent manner (CC50=100 nM).

[2] = system: HBV; test: In vitro antiviral assay: anti-HBV replication in HepAD38 cells (extracellular HBV DNA by QPCR); type: cell-based, hepatitis B virus (genotype D, serotype ayw); settings: Hepatitis B virus
Method: The anti-HBV activity of the Capsid Assembly Modulators (CAMs) was evaluated in a cell based assay utilizing the human hepatoma cell line HepAD38 (Ladner, S K., et al., 1998). HepAD38 cells were derived from the parental line, HepG2, that were stably transfected with a construct containing an HBV genome (genotype D, serotype ayw) under the control of a tetracycline repressible CMV promoter. Upon removal of tetracycline, viral pre-genomic RNA (pgRNA) and mRNAs are expressed and infectious viral particles are assembled and secreted into the culture medium providing a reliable, robust system to measure multiple steps of the HBV life cycle. Disruption of capsid formation results in reduced levels of DNA-containing virus particles that are released into the culture supernatant. To quantify the effect of CAMs on HBV replication, we developed a sensitive QPCR-based assay that measures extracellular HBV DNA levels upon treatment of HepAD38 cells with various concentrations of test compounds.
HepAD38 cells were maintained in DMEM/F12 medium containing 10% FBS, 400 μg/mL G418 and 0.3 μg/mL tetracycline (tet+ media) to maintain repression of HBV replication. To evaluate each compound, HepAD38 cells were seeded into 24-well collagen coated culture plates (Corning BioCoat) at a density of 200,000 cells per well in 1 mL of medium without tetracycline (tet-media) and allowed to adhere overnight at 37° C., 5% CO2 in a humidified incubator. The following day, media was refreshed and a dose range of each compound was prepared by performing 1 log10 serial dilutions in 100% DMSO at 200× the desired assay concentration. Dilutions were then added to the cells resulting in a final dose range of 1 μM to 10 pM and the plates were returned to the incubator. Following 7 days of incubation, culture supernatants were harvested and HBV DNA levels were evaluated by QPCR and compared to the vehicle treated control wells (i.e. DMSO alone).
To quantify HBV DNA levels, cell culture supernatants were diluted 1:10 in sterile, nuclease-free water (Gibco). The diluted supernatants were subsequently added to a PCR master mix containing 1× Roche Light Cycler Master Mix, 0.5 μM forward primer, 0.5 μM reverse primer (Fwd: 5′-[…] (SEQ ID NO 1); Rev: 5′-[…] (SEQ ID NO 2)), 0.2 μM Roche Universal Probe Library Probe 25. The volume was brought to 20 μL with nuclease-free water and amplification of the HBV target sequence was performed using a Roche LightCycler 480 QPCR instrument. PCR extended out to 45 cycles with each cycle consisting of a denaturation step at 95° C. for 10 sec., followed by an annealing step at 60° C. for 10 sec. and a brief extension step at 72° C. for 1 sec.
Extracellular HBV DNA levels, expressed in copies/mL, were determined by comparison to a standard curve (10^2-10^9 copies/mL) using the Roche LightCycler analysis software. These values were subsequently converted to percent inhibition of HBV replication by dividing the HBV DNA levels in the experimental samples with those obtained from the vehicle control (˜1-2×10^5 copies/mL). Potency, expressed as an EC50 (the effective concentration required to inhibit 50% of HBV replication), was calculated from the dose-response curve using a 4-parameter non-linear regression analysis (GraphPad Prism). The nucleoside analog inhibitor entecavir was used as a positive control to validate each assay run. The EC50 value of entecavir in the HepAD38 assay was 0.5 nM, as previously reported in the literature.

[3] = HePAD38, 168 h, 7 days incubation, extracellular HBV DNA by QPCR, read-out: Anti-HBV EC50

Compound	CC50 at 7 days [1]	EC50 [2, 3]	EC50 ([2]; HePAD38, positive control, read-out: EC50 in the HepAD38 assay)	CC50 at 7 days ([1]; positive control, HepG2 cells, MTT, read-out: CC50 (viability of HepG2 cells))
Cc1cc(NC(=O)c2c(C(C)C)c(C(=O)C(=O)N[C@H](C)C(F)(F)F)n(C)c2C)ccc1F [Example 96, (R)-N-(4-fluoro-3-methylphenyl)-4-isopropyl-1,2-dimethyl-5-(2-oxo-2-((1,1,1-trifluoropropan-2-yl)amino)acetyl)-1H-pyrrole-3-carboxamide]	> 30000 nM	> 1000 nM		
CCC1(NC(=O)C(=O)c2c(C)c(C(=O)Nc3ccc(F)c(C)c3)c(C)n2C)CCN(C(=O)c2ccnn2C)CC1 [Example 39, 5-(2-((4-ethyl-1-(1-methyl-1H-pyrazole-5-carbonyl)piperidin-4-yl)amino)-2-oxoacetyl)-N-(4-fluoro-3-methylphenyl)-1,2,4-trimethyl-1H-pyrrole-3-carboxamide]	> 30000 nM	< 50 nM		
Cc1cc(NC(=O)c2c(C)c(C(=O)C(=O)N[C@H]3CC[C@@H](O)CC3)n(C)c2-c2ccsc2)ccc1F [Example 184, N-(4-fluoro-3-methylphenyl)-5-(2-(((1s,4s)-4-hydroxycyclohexyl)amino)-2-oxoacetyl)-1,4-dimethyl-2-(thiophen-3-yl)-1H-pyrrole-3-carboxamide]	5000 to 30000 nM	> 1000 nM		
CCC1(NC(=O)C(=O)c2c(C)c(C(=O)Nc3ccc(F)c(C)c3)c(C)n2C)CCN(S(C)(=O)=O)CC1 [Example 42, 5-(2-((4-ethyl-1-(methylsulfonyl)piperidin-4-yl)amino)-2-oxoacetyl)-N-(4-fluoro-3-methylphenyl)-1,2,4-trimethyl-1H-pyrrole-3-carboxamide]	> 30000 nM	< 50 nM		
Cc1cc(NC(=O)c2c(C)c(C(=O)C(=O)N[C@]3(C)C[C@H](O)C3)n(C)c2CC2CC2)ccc1F [Example 123, 2-(cyclopropylmethyl)-N-(4-fluoro-3-methylphenyl)-5-(2-(((1s,3s)-3-hydroxy-1-methylcyclobutyl)amino)-2-oxoacetyl)-1,4-dimethyl-1H-pyrrole-3-carboxamide]	> 30000 nM	< 50 nM		
Cc1cc(NC(=O)c2c(C)c(C(=O)C(=O)N[C@@H]3CC[C@@H](O)CC3(C)C)n(C)c2C)ccc1F (single isomer, unassigned) [Example 143]	> 30000 nM	< 50 nM		
Cc1cc(NC(=O)c2c(C3CC3)c(C(=O)C(=O)N[C@H]3CC[C@@H](O)CC3)n(C)c2C)ccc1F [Example 97, 4-cyclopropyl-N-(4-fluoro-3-methylphenyl)-5-(2-(((1s,4s)-4-hydroxycyclohexyl)amino)-2-oxoacetyl)-1,2-dimethyl-1H-pyrrole-3-carboxamide]	> 30000 nM	500 to 1000 nM		
Cc1cc(NC(=O)c2c(C)c(C(=O)C(=O)NCC(C)(C)O)n(C)c2-c2ccsc2)ccc1F [Example 185, N-(4-fluoro-3-methylphenyl)-5-(2-((2-hydroxy-2-methylpropyl)amino)-2-oxoacetyl)-1,4-dimethyl-2-(thiophen-3-yl)-1H-pyrrole-3-carboxamide]	5000 to 30000 nM	500 to 1000 nM		
Cc1cc(NC(=O)c2c(C)c(C(=O)C(=O)N[C@]3(C)CC[C@H](O)CC3)n(C)c2-c2ccsc2)ccc1F [Example 183, N-(4-fluoro-3-methylphenyl)-5-(2-(((1s,4s)-4-hydroxy-1-methylcyclohexyl)amino)-2-oxoacetyl)-1,4-dimethyl-2-(thiophen-3-yl)-1H-pyrrole-3-carboxamide]	> 30000 nM	50 to 499 nM		
Cc1cc(NC(=O)c2c(C(C)C)c(C(=O)C(=O)N[C@H]3CC[C@@H](O)CC3)n(C)c2C)ccc1F [Example 92, N-(4-fluoro-3-methylphenyl)-5-(2-(((1s,4s)-4-hydroxycyclohexyl)amino)-2-oxoacetyl)-4-isopropyl-1,2-dimethyl-1H-pyrrole-3-carboxamide]	> 30000 nM	50 to 499 nM		
Cc1cc(NC(=O)c2c(C)c(C(=O)C(=O)N[C@H]3CC[C@@H](S(C)(=O)=O)CC3)n(C)c2-c2ccccn2)ccc1F [Example 156, N-(4-fluoro-3-methylphenyl)-1,4-dimethyl-5-(2-(((1s,4s)-4-(methylsulfonyl)cyclohexyl)amino)-2-oxoacetyl)-2-(pyridin-2-yl)-1H-pyrrole-3-carboxamide]	> 30000 nM	> 1000 nM		
Cc1c(C(=O)Nc2ccc(F)cc2)c(C)n(C)c1C(=O)C(=O)N[C@]1(C)CC[C@@H](O)CC1 [Example 137, N-(4-fluorophenyl)-5-(2-(((1r,4r)-4-hydroxy-1-methylcyclohexyl)amino)-2-oxoacetyl)-1,2,4-trimethyl-1H-pyrrole-3-carboxamide]	> 30000 nM	< 50 nM		
Cc1cc(NC(=O)c2c(C)c(C(=O)C(=O)NC3(CO)CCN(S(C)(=O)=O)CC3)n(C)c2C)ccc1F [Example 73, N-(4-fluoro-3-methylphenyl)-5-(2-((4-(hydroxymethyl)-1-(methylsulfonyl)piperidin-4-yl)amino)-2-oxoacetyl)-1,2,4-trimethyl-1H-pyrrole-3-carboxamide]	> 30000 nM	< 50 nM		
Cc1cc(NC(=O)c2c(C)c(C(=O)C(=O)N[C@@H]3CC[C@@H](O)C[C@@H]3F)n(C)c2C)ccc1F [Example 14, N-(4-fluoro-3-methylphenyl)-5-(2-(((1R,2S,4R)-2-fluoro-4-hydroxycyclohexyl)amino)-2-oxoacetyl)-1,2,4-trimethyl-1H-pyrrole-3-carboxamide]	> 30000 nM	< 50 nM		
Cc1cc(NC(=O)c2c(C)c(C(=O)C(=O)N[C@H]3CC[C@@H](S(C)(=O)=O)CC3)n(C)c2C2CC2)ccc1F [Example 129, 2-cyclopropyl-N-(4-fluoro-3-methylphenyl)-1,4-dimethyl-5-(2-(((1s,4s)-4-(methylsulfonyl)cyclohexyl)amino)-2-oxoacetyl)-1H-pyrrole-3-carboxamide]	> 30000 nM	< 50 nM		
Cc1c(C(=O)Nc2cccc(C#N)c2)c(C)n(C)c1C(=O)C(=O)N[C@]1(C)CC[C@@H](O)CC1 [Example 170, N-(3-cyanophenyl)-5-(2-(((1r,4r)-4-hydroxy-1-methylcyclohexyl)amino)-2-oxoacetyl)-1,2,4-trimethyl-1H-pyrrole-3-carboxamide]	> 30000 nM	< 50 nM		
C=C1[C@H](CO)[C@@H](O)C[C@@H]1n1cnc2c(=O)[nH]c(N)nc21 [entecavir, reference compound]			0.5 nM	
CN[C@@H]1C[C@H]2O[C@@](C)([C@@H]1OC)n1c3ccccc3c3c4c(c5c6ccccc6n2c5c31)C(=O)NC4 [staurosporine, reference compound]				100 nM

Reference: patent publication US20230107941A1, “HEPATITIS B CAPSID ASSEMBLY MODULATORS” (Venatorx Pharmaceuticals, Inc., priority 2019, published 2023)
